According to patent publication US11932638B2, “Ion channel inhibitor compounds for cancer treatment” (Centre National de la Recherche Scientifique, priority 2017, dated 2024):

What was measured:
[1] = target: T1, SK2 channel (Rattus norvegicus, UniProt P70604); experiment: Automated patch clamp (Nanion NPC-16 Patchliner Quattro) on HEK-rSK2 cells, SK2 channel activity; format: cell-based
T1 construct: expressed in transfected cells
Excerpt: (§1) Cell Lines Used to Screen the Molecules on the Activity of SKCa Channels (Small Conductance Calcium-Activated Potassium Channel; SK1, SK2 and SK3) and IKCa Channels (Intermediate Conductance Calcium-Activated Potassium Channel, SK4)
(§2) Use was made of the HEK 293 T line, a foetal kidney line which was immortalised with the T antigen of the […] simian virus. This cell line is widely used on account of the ease with which these cells can be transfected with plasmids or other transfection vectors. Four stable lines were used for patch clamp experiments: HEK-hSK1, HEK-rSK2, HEK-rSK3 and HEK-IKCa/SK4 which respectively overexpress the SK1, SK2, SK3 and SK4 channels. The lines were obtained via stable transduction (Girault et al., Current Cancer Drug Targets, 2011, 11, 1111-25) and are those already routinely used to assay SK3 modulators (Potier et al. Br J Pharmacol. 2011 January; 162(2):464-79; Sevrain et al., Med. Chem. Commun., 2012, 3, 1471-1478; Sevrain et al., Organic & Biomolecular Chemistry, 2013 Jul. 21; 11(27):4479-87, Berthe W, Sevrain C M, Chantôme A, Bouchet A M, Gueguinou M, Fourbon Y, Potier-Cartereau M, Haelters J P, Couthon-Gourvès H, Vandier C, Jaffrès P A. ChemMedChem. 2016 Jul. 19; 11(14):1531-9). […] These lines therefore enabled us without difficulty to examine the effect of the molecules on the SK3 channel, and also the selectivity thereof by means of the patch clamp technique. The inhibitory activity of the non-toxic molecules was assayed on the activity of the SK3 channel. The selectivity of the molecules was determined by patch clamp on HEK cell models stably expressing the SK3 channel but also the SK1, SK2, SK3 or IKCa/SK4 channels.
(§3) Patch clamp is a technique allowing measurement of the activity of ion channels by recording macroscopic (whole cell configuration) or microscopic (e.g. inside out configuration) ionic currents through the plasma membrane. For assay of the effect of the molecules on the SKCa/IKCa channels, two complementary techniques were used: conventional, manual patch clamp and automated patch clamp with the Nanion NPC-16 Patchliner Quattro (4 channels) (Potier et al., Mol Cancer Ther 2006, 5, 2946-53; Chantome et al., Exp Cell Res 2009, 315, 3620-30; Potier et al., Biochem Biophys Res Commun 2010, 397, 42-7; Girault et al., Current Cancer Drug Targets, 2011, 11, 1111-25; Sevrain et al., Med. Chem. Commun., 2012, 3, 1471-1478; Sevrain et al., Organic & Biomolecular Chemistry, 2013 Jul. 21; 11(27):4479-87; Chantome et al., Cancer Research, 2013 Aug. 1; 73(15):4852-61, Gueguinou M, Crottès D, Chantôme A, Rapetti-Mauss R, Potier-Cartereau M, Clarysse L, Girault A, Fourbon Y, Jézéquel P, Guérin-Charbonnel C, Fromont G, Martin P, Pellissier B, Schiappa R, Chamorey E, Mignen O, Uguen A, Borgese F, Vandier C, Soriani O. Oncogene. 2017 Jan. 23. doi: 10.1038/onc.2016.501, Berthe W, Sevrain C M, Chantôme A, Bouchet A M, Gueguinou M, Fourbon Y, Potier-Cartereau M, Haelters J P, Couthon-Gourvès H, Vandier C, Jaffrès P A. ChemMedChem. 2016 Jul. 19; 11(14):1531-9, Guéguinou M, Harnois T, Crottes D, Uguen A, Deliot N, Gambade A, Chantôme A, Haelters J P, Jaffrès P A, Jourdan M L, Weber G, Soriani O, Bougnoux P, Mignen O, Bourmeyster N, Constantin B, Lecomte T, Vandier C, Potier-Cartereau M. Oncotarget. 2016 Jun. 14; 7(24):36168-36184. doi: 10.18632/oncotarget.8786).
The technique of choice to determine molecules inhibiting the activity of ion channels is the patch-clamp technique. However, this technique which is manual is time-consuming and only gives low yields. Automation of patch-clamp brought a revolution in the study and screening of ion channels and has allowed the envisaging of assays with much faster flow rate and much higher yield. There exist several automatic patch clamp devices based on the use of chips. […]

[2] = target: T2, SK3 channel (Rattus norvegicus, UniProt P70605); experiment: Conventional manual patch clamp on HEK-rSK3 cells, SK3 channel activity; format: cell-based
T2 construct: expressed in transfected cells
Excerpt: as §1, §2
Electrophysiology/Patch-Clamp
as §3
For conventional patch clamp, the micropipette is filled with an intrapipette medium—IPM (see composition below) and allows measurement of ionic currents at the same time as allowing maintaining of membrane potential (voltage clamp). The experimental device was composed of an anti-vibration table supporting an inverted microscope (Nikon, Eclipse TE 300). The Petri dish (Corning Incorporated, USA), containing the cells was placed on a plexiglass plate attached to the microscope stage. The pipette was connected to the amplifier (Axopatch 200B) as reference electrode which allowed closing of the electrical circuit. […]

[3] = system: MDA-MB-435s-Luc cells expressing the SK3 channel; experiment: In vivo mouse model of orthotopic xenograft: primary tumour and metastases; design: species or system female NMRI nude mice; conditions: 1 mg/kg intraperitoneal, three times per week
Excerpt: In Vivo Mouse Model of Orthotopic Xenograft: Assay on Capacity of the Molecules to Reduce Tumour Development
This model allowed study on a metastatic cancer with development of the primary tumour and formation of metastases in parallel with primary tumour development. For this assay, female NMRI nude mice aged four weeks were used. To prepare the graft, the terminal end bud of the mice was cauterised with an electrical scalpel and 2 million cells expressing the SK3 channel and luciferase (MDA-MB-435s-Luc) implanted therein. Luciferase allows in vivo monitoring of tumour development via optical imaging (Girault et al., Current Cancer Drug Targets, 2011, 11, 1111-25; Chantome et al., Cancer Research, 2013 Aug. 1; 73(15):4852-61).
Two groups of mice were formed and compound 20 was prepared in a DMSO/PEG300/Water mixture (5:45:50) at 10 ml/kg: • Group 20 1: group treated via intraperitoneal injection of compound 20 at 1 mg/kg, three times per week for […]; and • Control group: group given injections with equivalent vehicle dilution […], three times per week for 15 weeks.
Development of the primary tumour was monitored in two manners: size measurement with a calliper rule (length×width×thickness) and measurement of bioluminescence with a bio-imaging device.
If the primary tumour reached a size of 900 mm^3, it was fully excised to best approach a clinical situation and exclude this variable which could impact the development of metastases. The experiment was continued with injections of compound 20 and monitoring of the development of metastases via BLI with front and back imaging of the mice.
The weight of the mice, bioluminescence and tumour size measurements were carried out every week to monitor tumour changes and metastases. For imaging, the mice were anaesthetised with isoflurane.
After about 15 weeks, the mice were sacrificed. Luciferin was injected before sacrifice to allow whole-animal imaging and imaging of each organ examined (bone, liver, lymph node, brain, colon).

c1ccc2c(c1)CCC[C@@H]2Nc1ncnc2cccnc12 [Compound 20, (S)—N-(1,2,3,4-Tetrahydronaphthalen-1-yl)pyrido[3,2-d]pyrimidin-4-amine]
inhibition at 0.1 µM ([1]; 100 nM): 91.2% | inhibition at 10 µM ([1]; 10 μM): 91.8% | inhibition at 0.01 µM ([2]; 10 nM): 45.5% | inhibition at 10 µM ([2]; 10 μM): 92.8% | toxicity in xenografted mice [3]: apparent non-toxicity | weight of the mice versus control group ([3]; at 10 weeks, xenografted mice): no significant difference in weight between the two groups | primary tumour volume versus control group ([3]; at the time of primary tumour excision): Tumour volume did not differ between groups | lung metastases ([3]; ex vivo after 15 weeks): developed lung metastases | bone metastases ([3]; ex vivo after 15 weeks, FIG. 1): reduced the number of bone metastases | ovarian and uterine metastases ([3]; ex vivo after 15 weeks, FIG. 2): fully stopped the development of ovarian and uterine metastases
